According to patent US20060140858A1, “Drug pre-targeting by means of bi-specific antibodies and hapten constructs comprising a carrier peptide and the active agent(s)” (Immunomedics, Inc., priority 2002, published 2006):
Where two headings read alike, the source gives them in different places. *1 amine or outer side, *2 acyl side, *3 side chain or, on linkers, in order; H or OH if unused. Where a SMILES comes first, the peptide text is derived from it. Side-chain parts run from the residue outwards. The star is where a group is joined. DOTA = O=C(O)CN1CCN(CC(=O)O)CCN(CC(=O)*)CCN(CC(=O)O)CC1; DTPA = O=C(O)CN(CCN(CC(=O)O)CC(=O)O)CCN(CC(=O)O)CC(=O)*; NH(2-(imidazol-4-yl)ethyl) = c1ncc(CCN*)[nH]1; Suc = O=C(CCC(=O)[*:2])[*:1]; X1 = NC(=S)NN=CC(=O)*

Experiments:
[1] = type: in vitro ADME, mouse
Description: The peptide was monitored as described above by HPLC.

[2] = target: carcinoembryonic antigen (CEA) (UniProt P06731); assay: analytical size exclusion HPLC, radioiodinated bsAb with 10-20x molar excess of CEA
[3] = target: Ac-Lys(DTPA)-Tyr-Lys(DTPA)-Lys(Tscg-Cys)-NH2 (IMP 192); assay: in vivo, calculated from biodistribution in GW-39 tumor-bearing mice, 1 h after 99m-Tc-IMP-192, assuming one peptide per bsAb
[4] = target: Ac-Lys(DTPA)-Tyr-Lys(DTPA)-Lys(Tscg-Cys)-NH2 (IMP 192); assay: in vivo, calculated from biodistribution in GW-39 tumor-bearing mice, 3 h after 99m-Tc-IMP-192, assuming one peptide per bsAb
[5] = target: Ac-Lys(DTPA)-Tyr-Lys(DTPA)-Lys(Tscg-Cys)-NH2 (IMP 192); assay: in vivo, calculated from biodistribution in GW-39 tumor-bearing mice, 24 h after 99m-Tc-IMP-192, assuming one peptide per bsAb
[6] = target: Ac-Lys(DTPA)-Tyr-Lys(DTPA)-Lys(Tscg-Cys)-NH2 (IMP 192); assay: in vivo, calculated from biodistribution in GW-39 tumor-bearing mice, 30 min after 99m-Tc-IMP-192, assuming one peptide per bsAb
[7] = Clearance of 99m-Tc-IMP-192 in BALB/c mice; type: in vivo
[8] = Pretargeting: 125-I-hMN-14 × 734 bsAb, 24 h later 99m-Tc-IMP-192, biodistribution; type: in vivo, Nude mice; details: female, mouse, total radioactivity; for tissue uptake at 0.5 h: 30 min post peptide; for tissue uptake at 1 h: 1 h post peptide; for tissue uptake at 3 h: 3 h post peptide; for tissue uptake at 24 h: 24 h post peptide
[9] = Control group: 99m-Tc-IMP-192 alone; type: in vivo, nude mice; details: female, nude (Taconic NCRNU), mouse, total radioactivity
[10] = target: peptide containing a single HSG substituent and a thiol (mono HSG peptide); assay: BIAcore, mono HSG peptide coupled to a CM-5 chip
[11] = target: carcinoembryonic antigen (CEA) (UniProt P06731); assay: SE-HPLC, 125I-labeled bsMAb with an excess of CEA
[12] = target: DOTA-Phe-Lys(HSG)-D-Tyr-Lys(HSG)-NH2 (IMP 241); assay: in vivo pretargeting, GW-39 tumors, 3 h after 111In-IMP-241
[13] = target: carcinoembryonic antigen (CEA) (UniProt P06731); assay: immunoreactivity of 99mTc-hMN-14 Fab′; method and antigen not given
[14] = Cys Challenge 1 mM in 0.05 M phosphate pH 7.5 Room Temp., 1 hr
[15] = Saline Dilution Room Temp., 19 hr
[16] = Saline Dilution Room Temp., […]

carcinoembryonic antigen (CEA), sequence (P06731 35-685 limits assumed): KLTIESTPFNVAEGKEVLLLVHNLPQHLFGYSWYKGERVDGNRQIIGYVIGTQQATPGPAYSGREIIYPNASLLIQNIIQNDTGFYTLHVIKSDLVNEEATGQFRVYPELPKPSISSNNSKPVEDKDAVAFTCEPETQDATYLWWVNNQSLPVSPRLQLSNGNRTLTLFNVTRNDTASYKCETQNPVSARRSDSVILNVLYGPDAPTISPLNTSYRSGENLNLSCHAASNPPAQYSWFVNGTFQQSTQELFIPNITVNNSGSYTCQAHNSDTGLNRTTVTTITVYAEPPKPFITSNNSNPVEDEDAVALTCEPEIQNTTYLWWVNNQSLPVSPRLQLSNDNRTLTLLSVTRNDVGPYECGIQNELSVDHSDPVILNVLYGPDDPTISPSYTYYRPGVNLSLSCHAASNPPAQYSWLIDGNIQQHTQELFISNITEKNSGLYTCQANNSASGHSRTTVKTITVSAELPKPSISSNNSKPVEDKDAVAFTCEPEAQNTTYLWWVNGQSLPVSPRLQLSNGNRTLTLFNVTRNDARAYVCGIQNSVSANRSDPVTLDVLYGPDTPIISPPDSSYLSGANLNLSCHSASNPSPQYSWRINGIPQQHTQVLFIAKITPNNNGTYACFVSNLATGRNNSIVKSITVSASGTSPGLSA

NC(=O)[C@H](CCCCNC(=O)CNC(=O)CCC(=O)NCCc1cnc[nH]1)NC(=O)[C@H](Cc1ccc(O)cc1)NC(=O)[C@H](CCCCNC(=O)CNC(=O)CCC(=O)NCCc1cnc[nH]1)NC(=O)[C@H](Cc1ccccc1)NC(=O)CN1CCN(CC(=O)O)CCN(CC(=O)O)CCN(CC(=O)O)CC1 [IMP 237, DOTA-Phe-Lys(HSG)-Tyr-Lys(HSG)-NH2] ({DOTA}-FK([Gly-Suc-NH(2-(imidazol-4-yl)ethyl)])YK([Gly-Suc-NH(2-(imidazol-4-yl)ethyl)])-NH2)
converted to the shorter retention time peak [1]: about 70%

hMN-14 × 734 (Fab × Fab) bi-specific antibody (bispecific antibody)
percent bound [2]: 90%
% saturation of the available DTPA binding sites on the tumor bound bsAb [3]: 25.8%
% saturation of the available DTPA binding sites on the tumor bound bsAb [4]: 25%
% saturation of the available DTPA binding sites on the tumor bound bsAb [5]: 28%
% saturation of the available DTPA binding sites on the tumor bound bsAb [6]: 25.4%

CC(=O)N[C@@H](CCCCNC(=O)CN(CCN(CCN(CC(=O)O)CC(=O)O)CC(=O)O)CC(=O)O)C(=O)N[C@@H](Cc1ccc(O)cc1)C(=O)N[C@@H](CCCCNC(=O)CN(CCN(CCN(CC(=O)O)CC(=O)O)CC(=O)O)CC(=O)O)C(=O)N[C@@H](CCCCNC(=O)[C@H](CS)NC(=O)C=NNC(N)=S)C(N)=O [IMP 192, Ac-Lys(DTPA)-Tyr-Lys(DTPA)-Lys(Tscg-Cys)-NH2] (Ac-K(DTPA)YK(DTPA)K([Cys-X1])-NH2)
tissue uptake at 2 h ([7]; BALB/c, mouse, large intestine, total radioactivity, Lg.Int., 2 h): 1.53 ± 0.45 %ID/g
tissue uptake at 4 h ([7]; BALB/c, mouse, large intestine, total radioactivity, Lg.Int., 4 h): 1.58 ± 0.7 %ID/g
tissue uptake at 24 h ([7]; BALB/c, mouse, large intestine, total radioactivity, Lg.Int., 24 h): 0.15 ± 0.14 %ID/g
tissue uptake at 1 h ([7]; BALB/c, mouse, small intestine, total radioactivity, Small int, 1 h): 1.37 ± 0.75 %ID/g
tissue uptake at 2 h ([7]; BALB/c, mouse, small intestine, total radioactivity, Small int, 2 h): 0.6 ± 0.06 %ID/g
tissue uptake at 4 h ([7]; BALB/c, mouse, small intestine, total radioactivity, Small int, 4 h): 0.21 ± 0.09 %ID/g
tissue uptake at 24 h ([7]; BALB/c, mouse, small intestine, total radioactivity, Small int, 24 h): 0.03 ± 0.01 %ID/g
tissue uptake at 1 h ([7]; BALB/c, mouse, total radioactivity, Blood, 1 h): 0.3 ± 0.09 %ID/g
tissue uptake at 2 h ([7]; BALB/c, mouse, total radioactivity, Blood, 2 h): 0.21 ± 0.03 %ID/g
tissue uptake at 4 h ([7]; BALB/c, mouse, total radioactivity, Blood, 4 h): 0.14 ± 0.04 %ID/g
tissue uptake at 24 h ([7]; BALB/c, mouse, total radioactivity, Blood, 24 h): 0.05 ± 0.01 %ID/g
tissue uptake at 1 h ([7]; BALB/c, mouse, total radioactivity, Liver, 1 h): 0.27 ± 0.18 %ID/g
tissue uptake at 2 h ([7]; BALB/c, mouse, total radioactivity, Liver, 2 h): 0.22 ± 0.16 %ID/g
tissue uptake at 1 h ([7]; BALB/c, mouse, total radioactivity, Muscle, 1 h): 0.1 ± 0.06 %ID/g
tissue uptake at 2 h ([7]; BALB/c, mouse, total radioactivity, Muscle, 2 h): 0.05 %ID/g
tissue uptake at 4 h ([7]; BALB/c, mouse, total radioactivity, Muscle, 4 h): 0.03 ± 0.01 %ID/g
tissue uptake at 4 h ([7]; BALB/c, mouse, total radioactivity, Stomach, 4 h): 0.27 ± 0.33 %ID/g
tissue uptake at 24 h ([7]; BALB/c, mouse, total radioactivity, Stomach, 24 h): 0.02 ± 0.01 %ID/g
excreta dose per gram or mL at 1 h ([7]; BALB/c, mouse, total radioactivity, Urine, 1 h): 169 ± 95 %ID/g
excreta dose per gram or mL at 2 h ([7]; BALB/c, mouse, total radioactivity, Urine, 2 h): 57 ± 15 %ID/g
excreta dose per gram or mL at 4 h ([7]; BALB/c, mouse, total radioactivity, Urine, 4 h): 6.3 ± 4.53 %ID/g
excreta dose per gram or mL at 24 h ([7]; BALB/c, mouse, total radioactivity, Urine, 24 h): 0.2 ± 0.02 %ID/g
tissue uptake at 1 h ([7]; BALB/c, mouse, Kidney, 1 h): 4.16 ± 0.75 %ID/g
tissue uptake at 2 h ([7]; BALB/c, mouse, Kidney, 2 h): 4.05 ± 0.6 %ID/g
tissue uptake at 4 h ([7]; BALB/c, mouse, Kidney, 4 h): 3.21 ± 0.99 %ID/g
tissue uptake at 24 h ([7]; BALB/c, mouse, Kidney, 24 h): 1.21 ± 0.08 %ID/g
tissue uptake at 4 h ([7]; BALB/c, mouse, Liver, 4 h): 0.09 ± 0.02 %ID/g
tissue uptake at 24 h ([7]; BALB/c, mouse, Liver, 24 h): 0.04 %ID/g
tissue uptake at 1 h ([7]; BALB/c, mouse, Lungs, 1 h): 0.5 ± 0.23 %ID/g
tissue uptake at 2 h ([7]; BALB/c, mouse, Lungs, 2 h): 0.29 ± 0.08 %ID/g
tissue uptake at 4 h ([7]; BALB/c, mouse, Lungs, 4 h): 0.19 ± 0.04 %ID/g
tissue uptake at 24 h ([7]; BALB/c, mouse, Lungs, 24 h): 0.05 %ID/g
tissue uptake at 1 h ([7]; BALB/c, mouse, Spleen, 1 h): 0.08 ± 0.01 %ID/g
tissue uptake at 2 h ([7]; BALB/c, mouse, Spleen, 2 h): 0.09 ± 0.3 %ID/g
tissue uptake at 4 h ([7]; BALB/c, mouse, Spleen, 4 h): 0.05 ± 0.02 %ID/g
tissue uptake at 24 h ([7]; BALB/c, mouse, Spleen, 24 h): 0.03 ± 0.01 %ID/g
% ID/g ([7]; Muscle, 24 h): 0.00 ± 0.0 % ID/g
in vivo stability (activity excreted in urine, SE-HPLC with antibody) ([7]; urine from a mouse in a pretargeting experiment): appears to be the intact peptide
tissue uptake at 0.5 h ([8]; NCRNU nude, Kidney): 9.9 ± 6.1 %ID/g
tissue uptake at 0.5 h ([8]; NCRNU nude, Liver): 1.4 ± 0.3 %ID/g
tissue uptake at 1 h ([8]; NCRNU nude, Liver): 0.9 ± 0.2 %ID/g
tissue uptake at 3 h ([8]; NCRNU nude, Liver): 0.6 ± 0.1 %ID/g
tissue uptake at 0.5 h ([8]; NCRNU nude, Spleen): 1.2 ± 0.4 %ID/g
tissue uptake at 1 h ([8]; NCRNU nude, Spleen): 0.8 ± 0.2 %ID/g
tissue uptake at 3 h ([8]; NCRNU nude, Spleen): 0.5 ± 0.1 %ID/g
tissue uptake at 0.5 h ([8]; NCRNU nude, Tumor): 11.4 ± 4.8 %ID/g
tissue uptake at 1 h ([8]; NCRNU nude, Tumor): 14.3 ± 3.6 %ID/g
tissue uptake at 3 h ([8]; NCRNU nude, Tumor): 12.6 ± 5.2 %ID/g
tissue uptake at 24 h ([8]; NCRNU nude, Tumor): 8.7 ± 3.3 %ID/g
tissue uptake at 0.5 h ([8]; nude (Taconic NCRNU), Blood): 4.3 ± 1.2 %ID/g
tissue uptake at 1 h ([8]; nude (Taconic NCRNU), Blood): 3.5 ± 0.9 %ID/g
tissue uptake at 3 h ([8]; nude (Taconic NCRNU), Blood): 1.7 ± 0.4 %ID/g
tissue uptake at 24 h ([8]; nude (Taconic NCRNU), Blood): 0.6 ± 0.2 %ID/g
tissue uptake at 1 h ([8]; nude (Taconic NCRNU), Kidney): 4.6 ± 0.7 %ID/g
tissue uptake at 3 h ([8]; nude (Taconic NCRNU), Kidney): 2.4 ± 0.5 %ID/g
tissue uptake at 24 h ([8]; nude (Taconic NCRNU), Kidney): 1.2 ± 0.3 %ID/g
tissue uptake at 0.5 h ([8]; nude (Taconic NCRNU), Lungs): 4.2 ± 3.4 %ID/g
tissue uptake at 1 h ([8]; nude (Taconic NCRNU), Lungs): 3.6 ± 1.9 %ID/g
tissue uptake at 3 h ([8]; nude (Taconic NCRNU), Lungs): 1 ± 0.3 %ID/g
tissue uptake at 24 h ([8]; nude (Taconic NCRNU), Lungs): 0.3 ± 0.1 %ID/g
tissue uptake at 3 h ([9]; Kidney): 2.6 ± 0.9 %ID/g
tissue uptake at 3 h ([9]; Liver): 0.3 ± 0.07 %ID/g
tissue uptake at 3 h ([9]; Spleen): 0.1 ± 0.05 %ID/g
Origin (ITLC 24 hr Saturated NaCl) (Cys Challenge): 91.3% Origin
Solvent Front (ITLC 24 hr Saturated NaCl) (Cys Challenge): 7.4% Solvent
Peptide (HPLC) [14]: 98% Peptide
Void Vol (HPLC) [14]: 2% Void Vol
Peptide (HPLC) (Cys Challenge, 19.5 hr): 89% Peptide
Void Vol (HPLC) (Cys Challenge, 19.5 hr): 11% Void Vol
Origin (ITLC 24 hr Saturated NaCl) (Kit Room Temp.): 94% Origin
Solvent Front (ITLC 24 hr Saturated NaCl) (Kit Room Temp.): 5% Solvent Front
Peptide (HPLC) (Kit Room Temp., 3 hr): 99% Peptide
Void Vol (HPLC) (Kit Room Temp., 3 hr): 1% Void Vol
Peptide (HPLC) (Kit Room Temp., 21 hr): 95% Peptide
Void Vol (HPLC) (Kit Room Temp., 21 hr): 5% Void Vol
Peptide (HPLC) (Kit Room Temp., Initial Label): 99% Peptide
Void Vol (HPLC) (Kit Room Temp., Initial Label): 1% Void Vol
Origin (ITLC 24 hr Saturated NaCl) (Saline Dilution Room Temp.): 97% Origin
Solvent Front (ITLC 24 hr Saturated NaCl) (Saline Dilution Room Temp.): 2.3% Solvent
Peptide (HPLC) [15]: 96% Peptide
Void Vol (HPLC) [15]: 4% Void Vol
Peptide (HPLC) [16]: 99% Peptide
Void Vol (HPLC) [16]: 1% Void Vol

hMN-14 × m679 F(ab′)2 bsMAb (bispecific antibody)
Kd [10]: 1.5 nM
percent of radiolabeled product shifting to a higher molecular weight [11]: > 90%
ratio of the % ID/g of the peptide compared to the bsMAb in the tumor [12]: 3.9

B1: humanized MN-14 (hMN-14) Fab′-SH, 99mTc-labeled (Fab, INN chains, looked up, V domains shown)
VH: EVQLVESGGGVVQPGRSLRLSCSASGFDFTTYWMSWVRQAPGKGLEWIGEIHPDSSTINYAPSLKDRFTISRDNAKNTLFLQMDSLRPEDTGVYFCASLYFGFPWFAYWGQGTPVTVSS
VL: DIQLTQSPSSLSASVGDRVTITCKASQDVGTSVAWYQQKPGKAPKLLIYWTSTRHTGVPSRFSGSGSGTDFTFTISSLQPEDIATYYCQQYSLYRSFGQGTKVEIK
modifications: Fab′ 99mTc label
immunoreactive fraction [13]: 92%
